Results as given in publication PMC4832243, “Discovery of Potent VEGFR-2 Inhibitors based on Furopyrimidine and Thienopyrimidne Scaffolds as Cancer Targeting Agents” (Scientific Reports, 2016).

What was measured:
[1] = system: HCT-116; assay: NCI 60 cell line panel (SRB), HCT-116; type: cell-based; settings: Homo sapiens; HCT-116, Colon Cancer; single dose of 10 μM; read-out: Cell Growth Percent
[2] = system: NCI-H322M; assay: NCI 60 cell line panel (SRB), NCI-H322M; type: cell-based; settings: Homo sapiens, Non-Small Cell Lung Cancer, single dose of 10 μM, read-out: Cell Growth Percent
[3] = system: CCRF-CEM; assay: NCI 60 cell line panel (SRB), CCRF-CEM; type: cell-based; settings: Homo sapiens, Leukemia, single dose of 10 μM, read-out: Cell Growth Percent
[4] = system: SK-MEL-2; assay: NCI 60 cell line panel (SRB), SK-MEL-2; type: cell-based; settings: Homo sapiens; SK-MEL-2, Melanoma; single dose of 10 μM; read-out: Cell Growth Percent
[5] = system: HUVEC umbilical vein endothelial cells; assay: In vitro HUVEC anti-proliferative assay (alamarBlue); type: cell-based; settings: Homo sapiens, HUVEC proliferation at 10 μM, 72 hours; for activity at 10 µM: read-out: % Cell growth; for inhibition at 10 µM: read-out: % Cell inhibition
[6] = system: MDA-MB-435; assay: NCI 60 cell line panel (SRB), MDA-MB-435; type: cell-based; settings: Homo sapiens; MDA-MB-435, Melanoma; single dose of 10 μM; read-out: Cell Growth Percent
[7] = system: PC-3; assay: NCI 60 cell line panel (SRB), PC-3; type: cell-based; settings: Homo sapiens; PC-3, Prostate Cancer; single dose of 10 μM; read-out: Cell Growth Percent
[8] = system: MCF7; assay: NCI 60 cell line panel (SRB), MCF7; type: cell-based; settings: Homo sapiens; MCF7, Breast Cancer; single dose of 10 μM; read-out: Cell Growth Percent
[9] = system: 786-0; assay: NCI 60 cell line panel (SRB), 786-0; type: cell-based; settings: Homo sapiens; 786-0, Renal Cancer; single dose of 10 μM; read-out: Cell Growth Percent
[10] = system: HCC-2998; assay: NCI 60 cell line panel (SRB), HCC-2998; type: cell-based; settings: Homo sapiens; HCC-2998, Colon Cancer; single dose of 10 μM; read-out: Cell Growth Percent
[11] = system: TK-10; assay: NCI 60 cell line panel (SRB), TK-10; type: cell-based; settings: Homo sapiens; TK-10, Renal Cancer; single dose of 10 μM; read-out: Cell Growth Percent
[12] = system: SF-295; assay: NCI 60 cell line panel (SRB), SF-295; type: cell-based; settings: Homo sapiens; SF-295, CNS Cancer; single dose of 10 μM; read-out: Cell Growth Percent
[13] = system: SF-539; assay: NCI 60 cell line panel (SRB), SF-539; type: cell-based; settings: Homo sapiens; SF-539, CNS Cancer; single dose of 10 μM; read-out: Cell Growth Percent
[14] = system: SNB-19; assay: NCI 60 cell line panel (SRB), SNB-19; type: cell-based; settings: Homo sapiens; SNB-19, CNS Cancer; single dose of 10 μM; read-out: Cell Growth Percent
[15] = system: EKVX; assay: NCI 60 cell line panel (SRB), EKVX; type: cell-based; settings: Homo sapiens, Non-Small Cell Lung Cancer, single dose of 10 μM, read-out: Cell Growth Percent
[16] = system: UO-31; assay: NCI 60 cell line panel (SRB), UO-31; type: cell-based; settings: Homo sapiens; UO-31, Renal Cancer; single dose of 10 μM; read-out: Cell Growth Percent
[17] = system: MDA-MB-231/ATCC; assay: NCI 60 cell line panel (SRB), MDA-MB-231/ATCC; type: cell-based; settings: Homo sapiens, Breast Cancer, single dose of 10 μM, read-out: Cell Growth Percent
[18] = system: K-562; assay: NCI 60 cell line panel (SRB), K-562; type: cell-based; settings: Homo sapiens, K562; K-562, Leukemia; single dose of 10 μM; read-out: Cell Growth Percent
[19] = system: NCI-H522; assay: NCI 60 cell line panel (SRB), NCI-H522; type: cell-based; settings: Homo sapiens; NCI-H522, Non-Small Cell Lung Cancer; single dose of 10 μM; read-out: Cell Growth Percent
[20] = system: OVCAR-3; assay: NCI 60 cell line panel (SRB), OVCAR-3; type: cell-based; settings: Homo sapiens; OVCAR-3, Ovarian Cancer; single dose of 10 μM; read-out: Cell Growth Percent
[21] = system: BT-549; assay: NCI 60 cell line panel (SRB), BT-549; type: cell-based; settings: Homo sapiens; BT-549, Breast Cancer; single dose of 10 μM; read-out: Cell Growth Percent
[22] = system: CAKI-1; assay: NCI 60 cell line panel (SRB), CAKI-1; type: cell-based; settings: Homo sapiens; CAKI-1, Renal Cancer; single dose of 10 μM; read-out: Cell Growth Percent
[23] = system: NCI-H226; assay: NCI 60 cell line panel (SRB), NCI-H226; type: cell-based; settings: Homo sapiens; NCI-H226, Non-Small Cell Lung Cancer; single dose of 10 μM; read-out: Cell Growth Percent
[24] = system: NCI-H23; assay: NCI 60 cell line panel (SRB), NCI-H23; type: cell-based; settings: Homo sapiens; NCI-H23, Non-Small Cell Lung Cancer; single dose of 10 μM; read-out: Cell Growth Percent
[25] = system: SW-620; assay: NCI 60 cell line panel (SRB), SW-620; type: cell-based; settings: Homo sapiens; SW-620, Colon Cancer; single dose of 10 μM; read-out: Cell Growth Percent

SMILES	activity at 10 µM [1]	activity at 10 µM [2]	activity at 10 µM [3]	activity at 10 µM [4]	activity at 10 µM [6]	activity at 10 µM [7]	activity at 10 µM [8]	activity at 10 µM [9]	activity at 10 µM [10]	activity at 10 µM [11]	activity at 10 µM [12]	activity at 10 µM [13]	activity at 10 µM [14]	activity at 10 µM [15]	activity at 10 µM [16]	activity at 10 µM [17]	activity at 10 µM [18]	activity at 10 µM [19]	activity at 10 µM [20]	activity at 10 µM [21]	also measured
Cc1cccc(NC(=O)Nc2ccc(Oc3ncnc4sc5c(c34)CCCC5)cc2)c1 [Compound 21b]	62.1%	91.2%	70%	99.7%	79.3%	37.5%	44.1%	87%	104%	72.5%	67.6%	59.3%	72%	62.8%	59%	81.9%	57.9%	16.1%	63.5%	71.9%	activity at 10 µM [5]: 18%; inhibition at 10 µM [5]: 82%; activity at 10 µM [22]: 86%; activity at 10 µM [23]: 73.1%; activity at 10 µM [24]: 72.4%; activity at 10 µM [25]: 103%
COc1cccc(NC(=O)Nc2ccc(Oc3ncnc4sc5c(c34)CCCC5)cc2)c1 [Compound 21c]	55.8%	95.8%	64.4%	97.3%	73.1%	45%	54.4%	97.6%	102%	73.5%	76.1%	53%	70.2%	66.2%	52.5%	69.6%	64.6%	21%	68.3%	88.5%	activity at 10 µM [5]: 20.9%; inhibition at 10 µM [5]: 79.2%; activity at 10 µM [22]: 80.8%; activity at 10 µM [23]: 65.1%; activity at 10 µM [24]: 67.7%; activity at 10 µM [25]: 96.3%
CCOC(=O)c1c(C)oc2ncnc(Nc3ccc(C(=O)Nc4ccc(OC)cc4)cc3)c12 [Compound 14b]	85.1%	112%	89.1%	107%	106%	83.6%	95.6%	92.1%	114%	102%	99.3%	63.8%	108%	91.1%	94.3%	91%	107%	84%	110%	61.9%	melting point: 218 to 222 °C; activity at 10 µM [22]: 96.6%; activity at 10 µM [23]: 94.2%; activity at 10 µM [24]: 95.6%; activity at 10 µM [25]: 112%
O=C(Nc1ccccc1)Nc1ccc(Oc2ncnc3sc4c(c23)CCCC4)cc1 [Compound 21a]	67.4%	99.7%	64.9%	87.6%	19.2%	33.4%	44.5%	84.8%	89.6%	86.1%	64.9%	44%	63.1%	60.8%	55.2%	66.2%	26.1%	15.6%	74.9%	63.8%	activity at 10 µM [5]: 35.7%; inhibition at 10 µM [5]: 64.3%; activity at 10 µM [22]: 83.4%; activity at 10 µM [23]: 66.6%; activity at 10 µM [24]: 66.4%; activity at 10 µM [25]: 92%
